Conditions: Liquid; for speed of sound: Pulse-echo method; for mass density: Vibrating tube method

CCCCCCCCCC(=O)OC [methyl decanoate]
Conditions	mass density [kg/m3]	speed of sound [m/s]
283.15 K, 101.3 kPa	–	1362.6
283.15 K, 10000 kPa	–	1408.9
283.15 K, 20000 kPa	–	1452.2
283.15 K, 30000 kPa	–	1493.2
283.15 K, 40000 kPa	–	1531.7
283.15 K, 50000 kPa	–	1568
283.15 K, 60000 kPa	–	1602.6
283.15 K, 70000 kPa	–	1634.5
283.15 K, 80000 kPa	–	1666.4
283.15 K, 90000 kPa	–	1696.9
283.15 K, 100000 kPa	–	1726.9
283.15 K, 110000 kPa	–	1755.2
283.15 K, 120000 kPa	–	1783.4
283.15 K, 130000 kPa	–	1809.5
283.15 K, 140000 kPa	–	1835.9
293.15 K, 101.3 kPa	872.05	–
293.15 K, 10000 kPa	878.88	–
293.15 K, 20000 kPa	885.04	–
293.15 K, 30000 kPa	890.91	–
293.15 K, 40000 kPa	896.46	–
293.15 K, 50000 kPa	901.66	–
293.15 K, 60000 kPa	906.63	–
293.15 K, 70000 kPa	911.3	–
293.15 K, 80000 kPa	915.52	–
293.15 K, 90000 kPa	920.05	–
293.15 K, 100000 kPa	924.3	–
303.15 K, 101.3 kPa	863.6	1287.7
303.15 K, 10000 kPa	870.96	1339.2
303.15 K, 20000 kPa	877.43	1385.8
303.15 K, 30000 kPa	883.54	1429.6
303.15 K, 40000 kPa	889.26	1470.3
303.15 K, 50000 kPa	894.61	1508.7
303.15 K, 60000 kPa	899.63	1544.9
303.15 K, 70000 kPa	904.55	1580.2
303.15 K, 80000 kPa	909.11	1614.1
303.15 K, 90000 kPa	913.59	1646.1
303.15 K, 100000 kPa	917.87	1676.9
303.15 K, 110000 kPa	–	1706.8
303.15 K, 120000 kPa	–	1735.1
303.15 K, 130000 kPa	–	1762.8
303.15 K, 140000 kPa	–	1789.2
303.15 K, 150000 kPa	–	1815.2
303.15 K, 170000 kPa	–	1864.9
303.15 K, 190000 kPa	–	1912.7
303.15 K, 210000 kPa	–	1957.6
313.15 K, 101.3 kPa	855.85	–
313.15 K, 10000 kPa	863.12	–
313.15 K, 20000 kPa	869.91	–
313.15 K, 30000 kPa	876.23	–
313.15 K, 40000 kPa	882.19	–
313.15 K, 50000 kPa	887.77	–
313.15 K, 60000 kPa	893.04	–
313.15 K, 70000 kPa	898.12	–
313.15 K, 80000 kPa	902.9	–
313.15 K, 90000 kPa	907.5	–
313.15 K, 100000 kPa	911.9	–
323.15 K, 101.3 kPa	847.65	1214.8
323.15 K, 10000 kPa	855.36	1269.1
323.15 K, 20000 kPa	862.49	1319.3
323.15 K, 30000 kPa	869.02	1365.7
323.15 K, 40000 kPa	875.03	1409
323.15 K, 50000 kPa	880.76	1449.5
323.15 K, 60000 kPa	886.55	1487.8
323.15 K, 70000 kPa	891.71	1524
323.15 K, 80000 kPa	896.69	1558.3
323.15 K, 90000 kPa	901.4	1591.2
323.15 K, 100000 kPa	905.81	1623.3
323.15 K, 110000 kPa	–	1653.9
323.15 K, 120000 kPa	–	1684.6
323.15 K, 130000 kPa	–	1711.9
323.15 K, 140000 kPa	–	1739.6
323.15 K, 150000 kPa	–	1765.9
323.15 K, 170000 kPa	–	1817
323.15 K, 190000 kPa	–	1864.8
323.15 K, 210000 kPa	–	1910.9
333.15 K, 101.3 kPa	839.36	–
333.15 K, 10000 kPa	847.25	–
333.15 K, 20000 kPa	854.44	–
333.15 K, 30000 kPa	861.45	–
333.15 K, 40000 kPa	867.94	–
333.15 K, 50000 kPa	873.98	–
333.15 K, 60000 kPa	879.63	–
333.15 K, 70000 kPa	885.02	–
333.15 K, 80000 kPa	890.12	–
333.15 K, 90000 kPa	894.95	–
333.15 K, 100000 kPa	899.64	–
343.15 K, 101.3 kPa	830.82	1142.8
343.15 K, 10000 kPa	839.54	1202.4
343.15 K, 20000 kPa	847.61	1255.9
343.15 K, 30000 kPa	854.58	1304.9
343.15 K, 40000 kPa	861.37	1350.5
343.15 K, 50000 kPa	867.59	1393.5
343.15 K, 60000 kPa	873.44	1433.7
343.15 K, 70000 kPa	879.04	1471.7
343.15 K, 80000 kPa	884.27	1508.2
343.15 K, 90000 kPa	889.44	1541.7
343.15 K, 100000 kPa	894.26	1574.1
343.15 K, 110000 kPa	–	1606
343.15 K, 120000 kPa	–	1636.2
343.15 K, 130000 kPa	–	1665.9
343.15 K, 140000 kPa	–	1694
343.15 K, 150000 kPa	–	1721.2
343.15 K, 170000 kPa	–	1773.2
343.15 K, 190000 kPa	–	1822
343.15 K, 210000 kPa	–	1868.7
353.15 K, 101.3 kPa	822.35	–
353.15 K, 10000 kPa	831.43	–
353.15 K, 20000 kPa	839.8	–
353.15 K, 30000 kPa	847.35	–
353.15 K, 40000 kPa	854.31	–
353.15 K, 50000 kPa	860.82	–
353.15 K, 60000 kPa	866.96	–
353.15 K, 70000 kPa	872.65	–
353.15 K, 80000 kPa	878.11	–
353.15 K, 90000 kPa	883.27	–
353.15 K, 100000 kPa	888.25	–
363.15 K, 101.3 kPa	814.51	–
363.15 K, 10000 kPa	823.75	1138.5
363.15 K, 20000 kPa	832.39	1195.9
363.15 K, 30000 kPa	840.33	1247.9
363.15 K, 40000 kPa	847.71	1296.3
363.15 K, 50000 kPa	854.36	1341.1
363.15 K, 60000 kPa	860.65	1382.7
363.15 K, 70000 kPa	866.47	1421.6
363.15 K, 80000 kPa	872.03	1458.4
363.15 K, 90000 kPa	877.31	1493.8
363.15 K, 100000 kPa	882.47	1527.4
363.15 K, 110000 kPa	–	1559.7
363.15 K, 120000 kPa	–	1590.9
363.15 K, 130000 kPa	–	1620.7
363.15 K, 140000 kPa	–	1649.4
363.15 K, 150000 kPa	–	1677.2
363.15 K, 170000 kPa	–	1730.6
363.15 K, 190000 kPa	–	1780.4
363.15 K, 210000 kPa	–	1827.2
373.15 K, 101.3 kPa	805.43	–
373.15 K, 10000 kPa	816.05	–
373.15 K, 20000 kPa	825.16	–
373.15 K, 30000 kPa	833.45	–
373.15 K, 40000 kPa	841.07	–
373.15 K, 50000 kPa	848.03	–
373.15 K, 60000 kPa	854.82	–
373.15 K, 70000 kPa	860.9	–
373.15 K, 80000 kPa	866.94	–
373.15 K, 90000 kPa	872.3	–
373.15 K, 100000 kPa	877.6	–
383.15 K, 101.3 kPa	797.49	–
383.15 K, 10000 kPa	808.37	1077.4
383.15 K, 20000 kPa	818.07	1138.6
383.15 K, 30000 kPa	826.67	1193.5
383.15 K, 40000 kPa	834.58	1244.5
383.15 K, 50000 kPa	841.72	1291.3
383.15 K, 60000 kPa	848.65	1334.9
383.15 K, 70000 kPa	855.07	1375.4
383.15 K, 80000 kPa	861.06	1414.2
383.15 K, 90000 kPa	866.74	1450.6
383.15 K, 100000 kPa	872.09	1485.3
383.15 K, 110000 kPa	–	1518.9
383.15 K, 120000 kPa	–	1550.9
383.15 K, 130000 kPa	–	1581.2
383.15 K, 140000 kPa	–	1610.8
383.15 K, 150000 kPa	–	1641
383.15 K, 170000 kPa	–	1692.7
383.15 K, 190000 kPa	–	1743
383.15 K, 210000 kPa	–	1791.1
393.15 K, 101.3 kPa	788.67	–
393.15 K, 10000 kPa	800.06	–
393.15 K, 20000 kPa	810.12	–
393.15 K, 30000 kPa	819.15	–
393.15 K, 40000 kPa	827.46	–
393.15 K, 50000 kPa	834.97	–
393.15 K, 60000 kPa	842.04	–
393.15 K, 70000 kPa	848.64	–
393.15 K, 80000 kPa	854.73	–
393.15 K, 90000 kPa	860.61	–
393.15 K, 100000 kPa	866.13	–
403.15 K, 10000 kPa	–	1017.7
403.15 K, 20000 kPa	–	1083.2
403.15 K, 30000 kPa	–	1141.7
403.15 K, 40000 kPa	–	1194.7
403.15 K, 50000 kPa	–	1242.9
403.15 K, 60000 kPa	–	1288.1
403.15 K, 70000 kPa	–	1330.6
403.15 K, 80000 kPa	–	1370.3
403.15 K, 90000 kPa	–	1407.7
403.15 K, 100000 kPa	–	1442.8
403.15 K, 110000 kPa	–	1476.6
403.15 K, 120000 kPa	–	1509.7
403.15 K, 130000 kPa	–	1541.7
403.15 K, 140000 kPa	–	1571.6
403.15 K, 150000 kPa	–	1600.1
403.15 K, 170000 kPa	–	1655.5
403.15 K, 190000 kPa	–	1706.6
403.15 K, 210000 kPa	–	1754.5
